From patent US20220332700A1, “NOVEL APOPTOSIS SIGNAL-REGULATING KINASE 1 INHIBITORS” (MANKIND PHARMA LTD, priority 2019, published 2022)
Like-named read-outs stand apart in the source and are kept apart here.

Columns and labels:
Human ASK1 = molecular target: T1, Human ASK1 (Homo sapiens, UniProt Q99683); test: ASK1 Cell Based Assay (phospho p38 read out in hASK1 transfected HEK293T-AP1 cells)
T1 construct: expressed in transfected cells; host or cells: HEK293T-AP1
T1 sequence (Q99683 1-1374): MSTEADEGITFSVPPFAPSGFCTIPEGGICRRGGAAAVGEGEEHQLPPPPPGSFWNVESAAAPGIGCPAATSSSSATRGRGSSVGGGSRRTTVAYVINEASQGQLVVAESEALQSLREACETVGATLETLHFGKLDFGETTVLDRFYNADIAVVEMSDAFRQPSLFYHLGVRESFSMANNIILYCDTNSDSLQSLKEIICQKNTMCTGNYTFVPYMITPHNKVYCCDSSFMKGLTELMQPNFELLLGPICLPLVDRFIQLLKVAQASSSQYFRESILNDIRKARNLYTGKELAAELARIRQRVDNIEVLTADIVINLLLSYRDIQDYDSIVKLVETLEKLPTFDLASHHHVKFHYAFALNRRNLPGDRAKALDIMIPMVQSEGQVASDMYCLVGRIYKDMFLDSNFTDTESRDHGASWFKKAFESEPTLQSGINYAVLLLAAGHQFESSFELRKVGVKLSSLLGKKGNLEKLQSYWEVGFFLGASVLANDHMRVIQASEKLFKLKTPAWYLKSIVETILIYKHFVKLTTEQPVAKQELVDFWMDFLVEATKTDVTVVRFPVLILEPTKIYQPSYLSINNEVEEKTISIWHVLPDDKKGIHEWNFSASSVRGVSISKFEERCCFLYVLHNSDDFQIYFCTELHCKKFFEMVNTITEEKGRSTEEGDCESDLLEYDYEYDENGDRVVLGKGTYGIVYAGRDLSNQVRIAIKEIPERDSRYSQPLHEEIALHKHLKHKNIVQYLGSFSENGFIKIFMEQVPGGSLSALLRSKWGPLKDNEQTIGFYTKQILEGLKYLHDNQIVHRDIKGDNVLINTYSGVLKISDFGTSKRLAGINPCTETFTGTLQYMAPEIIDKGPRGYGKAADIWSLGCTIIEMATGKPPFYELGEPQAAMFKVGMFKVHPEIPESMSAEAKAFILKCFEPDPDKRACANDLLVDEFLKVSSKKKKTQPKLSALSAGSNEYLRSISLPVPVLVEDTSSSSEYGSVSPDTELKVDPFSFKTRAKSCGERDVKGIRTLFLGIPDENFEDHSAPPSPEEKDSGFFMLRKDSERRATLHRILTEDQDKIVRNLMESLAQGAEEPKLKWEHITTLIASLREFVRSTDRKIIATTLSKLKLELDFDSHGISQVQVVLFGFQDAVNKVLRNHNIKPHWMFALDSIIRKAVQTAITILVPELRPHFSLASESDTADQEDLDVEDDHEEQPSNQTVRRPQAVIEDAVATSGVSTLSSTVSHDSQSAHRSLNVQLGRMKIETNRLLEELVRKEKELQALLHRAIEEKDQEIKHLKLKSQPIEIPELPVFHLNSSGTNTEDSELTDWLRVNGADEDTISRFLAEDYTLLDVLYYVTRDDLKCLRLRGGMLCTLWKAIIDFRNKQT
Outline: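 HEK293T-AP1 cells transfected with hASK1, after 24 h treated with compounds for 24 h (0.2% DMSO), then stimulated with 1 mM H2O2 for 1 h with compounds present.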

Male C57BL/6 mice = test: Mouse model of Acetaminophen (APAP) induced Hepatotoxicity; type: in vivo; settings: l0mpk and 30mpk; APAP 300 mg/kg i.p.; 6h post APAP; dose dependent, comparable with selonsertib
Protocol: Male C57BL/6 mice, 20 to 24 grams body weight at the time of study initiation, were acclimatized at least for 1-3 days prior to experiment initiation. Based on body weight, animal were randomized to different groups and kept for overnight fasting. Animals were treated with test compounds and vehicle for control group. After 30 minutes, APAP (300 mg/kg) was administered by intraperitoneal route (i.p). A vehicle control group was also included in the study as a vehicle control for test compound as well as APAP. All animals were bled 6h post APAP administration from the retro-orbital plexus into appropriately labeled tubes. Serum ALT levels were measured in all groups.

[1] = HEK293T-AP1 cells, 1 mM hydrogen peroxide, phospho p38, read-out: Cell Based Assay IC50
[2] = comparison with Selonsertib, read-out: ASK1 ph. P38 Cell based Assay (IC50)

Row | IC50 (Human ASK1; [1]) [nM] | IC50 (Human ASK1; [2]) [nM] | Structure (SMILES) | reduction in serum ALT levels compared to vehicle (Male C57BL/6 mice)
1 | 140 | 140 | CC(C)n1cnnc1-c1cccc(N2CCN(c3ccc(N4CCOCC4)cc3)C2=O)n1 [Example 1043, 1-(6-(4-isopropyl-4H-1,2,4-triazol-3-yl)pyridin-2-yl)-3-(4-morpholinophenyl)imidazolidin-2-one] | significant reduction
2 | < 100 | 69 | CC(C)n1cnnc1-c1cccc(N2CCN(c3ccc(N4CC(C#N)C4)cc3)C2=O)n1 [Example 1071, 1-(4-(3-(6-(4-isopropyl-4H-1,2,4-triazol-3-yl)pyridin-2-yl)-2-oxoimidazolidin-1-yl)phenyl)azetidine-3-carbonitrile] | significant reduction
3 | < 100 | 15 | CNC(=O)C1CCN(c2ccc(N3CCN(c4cccc(-c5nncn5C(C)C)n4)C3=O)cc2)CC1 [Example 1082, 1-(4-(3-(6-(4-isopropyl-4H-1,2,4-triazol-3-yl)pyridin-2-yl)-2-oxoimidazolidin-1-yl)phenyl)-N-methylpiperidine-4-carboxamide] | significant reduction
4 | < 100 | 102 | CC(C)n1cnnc1-c1cccc(N2CCN(c3ccc(N4CCC(C(=O)N(C)C)CC4)cc3)C2=O)n1 [Example 1097, 1-(4-(3-(6-(4-isopropyl-4H-1,2,4-triazol-3-yl)pyridin-2-yl)-2-oxoimidazolidin-1-yl)phenyl)-N,N-dimethylpiperidine-4-carboxamide] | significant reduction
